{"source": "ChEMBL document CHEMBL3217638", "about": "“Synthetic modulators of the retinoic acid receptor-related orphan receptors” (Medchemcomm, 2013)", "molecular_target": "T1, Nuclear receptor ROR-gamma (Homo sapiens, UniProt P51449)", "T1 sequence (P51449 whole entry)": "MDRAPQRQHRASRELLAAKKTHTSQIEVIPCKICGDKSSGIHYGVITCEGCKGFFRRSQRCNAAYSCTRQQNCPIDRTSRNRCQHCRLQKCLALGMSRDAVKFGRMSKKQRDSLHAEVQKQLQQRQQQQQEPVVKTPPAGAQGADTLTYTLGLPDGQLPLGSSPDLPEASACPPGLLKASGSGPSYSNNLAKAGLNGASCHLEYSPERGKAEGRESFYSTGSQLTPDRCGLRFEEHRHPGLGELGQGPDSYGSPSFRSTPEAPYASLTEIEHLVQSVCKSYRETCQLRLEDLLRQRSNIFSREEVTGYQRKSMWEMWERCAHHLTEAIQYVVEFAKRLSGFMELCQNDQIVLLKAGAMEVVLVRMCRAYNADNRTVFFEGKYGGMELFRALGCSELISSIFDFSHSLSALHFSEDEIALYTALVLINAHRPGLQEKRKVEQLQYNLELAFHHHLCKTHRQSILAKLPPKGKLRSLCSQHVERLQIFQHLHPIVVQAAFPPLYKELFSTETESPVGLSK", "experiment": "Displacement of fluorescein-labeled 25-hydroxycholesterol from human N-terminal 6xHis-tagged ROR gamma LBD (residues 262 to 518) expressed in Escherichia coli BL21-CodonPlus(DE3)-RIL cells by fluorescence polarization assay"}
{"smiles": "C[C@H]1O[C@@H](O[C@H]2[C@@H](O)C[C@H](O[C@H]3[C@@H](O)C[C@H](O[C@H]4CC[C@@]5(C)[C@H](CC[C@@H]6[C@@H]5C[C@@H](O)[C@]5(C)[C@@H](C7=CC(=O)OC7)CC[C@]65O)C4)O[C@@H]3C)O[C@@H]2C)C[C@H](O)[C@@H]1O", "note": "[DIGOXIN]", "values": [{"measurement": "IC50", "result": 4, "unit": "µM"}]}
